Measurements as given in US12358948B2, “Neurotensinergic agonists and methods of using same preventing or treating pain” (priority 2019, dated 2025).
Where a SMILES comes first, the peptide text is derived from it. Bridges are numbered along the chain shown (N, C = ends). [ ]: non-standard residue; d: D form. ξ: configuration not given here. dAllylGly = C=CC[C@@H](N)C(=O)O; Cha = N[C@@H](CC1CCCCC1)C(=O)O; Ile(3ξ) = CCC(C)[C@H](N)C(=O)O; AllylGly = C=CC[C@H](N)C(=O)O; Chg = N[C@H](C(=O)O)C1CCCCC1; Tle = CC(C)(C)[C@H](N)C(=O)O; Nle = CCCC[C@H](N)C(=O)O; Orn = NCCC[C@H](N)C(=O)O; Nva = CCC[C@H](N)C(=O)O; Dap = NC[C@H](N)C(=O)O

Assays:
hNTS1 receptor = target: T1, hNTS1 receptor (Homo sapiens, UniProt P30989); experiment: Competitive radioligand binding assay on the hNTS1 receptor; settings: displacement of 125I-[Tyr3]-NT, membranes of CHO-K1 cells expressing hNTS1; read-out: IC50 NTS1
T1 construct: membranes prepared from them
T1 sequence (P30989 whole entry): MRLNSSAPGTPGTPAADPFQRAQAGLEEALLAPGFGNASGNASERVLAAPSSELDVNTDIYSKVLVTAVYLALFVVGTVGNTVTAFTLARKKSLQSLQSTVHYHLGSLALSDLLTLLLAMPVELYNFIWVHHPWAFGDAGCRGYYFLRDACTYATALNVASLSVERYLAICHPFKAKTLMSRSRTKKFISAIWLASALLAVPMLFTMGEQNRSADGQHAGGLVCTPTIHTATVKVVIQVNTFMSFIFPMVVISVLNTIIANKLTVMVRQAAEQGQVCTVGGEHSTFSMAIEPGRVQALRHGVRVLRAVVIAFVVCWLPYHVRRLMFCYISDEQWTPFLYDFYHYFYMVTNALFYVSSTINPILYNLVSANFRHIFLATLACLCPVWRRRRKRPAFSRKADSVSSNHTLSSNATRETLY
Description: (§1) CHO-K1 (Chinese Hamster Ovary) cells stably expressing hNTS1 and 1321N1 cells stably expressing hNTS2 (ES-690-C and ES-691-C from PerkinElmer, Montréal, Canada) were cultured respectively in Ham's F12 and in DMEM culture media. Culture media were supplemented with 10% FBS, 100 U/mL penicillin, 100 μg/mL streptomycin, 20 mM HEPES, and 0.4 mg/mL G418 at 37° C. in a humidified chamber at 5% CO2.
(§2) The cells expressing hNTS1 were frozen when they reached 80% confluency. They were scrapped off the dish with 10 mM Tris buffer, 1 mM EDTA, pH 7.5 and centrifuged at 15,000 g for 5 min at 4° C. The pellet was then re-suspended in 1 mL binding buffer. The cells expressing hNTS2 were also frozen when they reached 80% confluency. They were scraped off the dish with PBS, 0.5 mM EDTA, pH 7.5 and sonicated for 5 minutes (pulse 30 s/5 s off, amplitude 40%). They were ultracentrifuged at 100 000 g for 60 minutes at 4° C. The pellet was re-suspended in 1 mL freezing buffer (PBS, glycerol, 0.5 mM EDTA), sonicated for 1 minute (pulse 30 s/5 s off, amplitude 50%) and further diluted in binding buffer. Competitive radioligand binding experiments were performed by incubating 15 μg of cell membranes expressing the hNTS1 receptor with […] of ^125I-[Tyr^3]-NT (2200 Ci/mmol) or 50 μg of cell membranes expressing the hNTS2 receptor with […] of ^125I-[Tyr^3]-NT in binding buffer (50 mM Tris-HCl, pH 7.5, 0.2% BSA) in the presence of increasing concentrations of analogues ranging from 10^−11 to 10^−4 M for 60 min at 25° C. After incubation, the binding reaction mixture was transferred in PEI-coated 96-well filter plates (glass fiber filters GF/B, Millipore, Billerica, MA). Reaction was terminated by filtration, and plates were washed three times with 200 μL ice-cold binding buffer. Glass filters were then counted using a γ-counter (2470 Wizard2, PerkinElmer, Mississauga, Ontario, Canada). Non-specific binding was measured in the presence of 10^−5 M unlabeled NT (8-13) and represented less than 5% of total binding. IC50 values were determined from competition curves as the unlabeled ligand concentration inhibiting 50% of ^125I-[Tyr^3]-NT-specific binding.
(§3) Competitive radioligand binding data were plotted using the nonlinear regression One-site-Fit Log(IC50) and represented the mean±SEM of at least three independent experiments in triplicates.

hNTS2 receptor = target: T2, hNTS2 receptor (Homo sapiens, UniProt O95665); experiment: Competitive radioligand binding assay on the hNTS2 receptor; settings: for IC50: displacement of 125I-[Tyr3]-NT, membranes of 1321N1 cells expressing hNTS2, read-out: IC50 NTS2 (converted); for Selectivity: ratio IC50 for NTS1 : IC50 for NTS2
T2 construct: membranes prepared from them
T2 sequence (O95665 whole entry): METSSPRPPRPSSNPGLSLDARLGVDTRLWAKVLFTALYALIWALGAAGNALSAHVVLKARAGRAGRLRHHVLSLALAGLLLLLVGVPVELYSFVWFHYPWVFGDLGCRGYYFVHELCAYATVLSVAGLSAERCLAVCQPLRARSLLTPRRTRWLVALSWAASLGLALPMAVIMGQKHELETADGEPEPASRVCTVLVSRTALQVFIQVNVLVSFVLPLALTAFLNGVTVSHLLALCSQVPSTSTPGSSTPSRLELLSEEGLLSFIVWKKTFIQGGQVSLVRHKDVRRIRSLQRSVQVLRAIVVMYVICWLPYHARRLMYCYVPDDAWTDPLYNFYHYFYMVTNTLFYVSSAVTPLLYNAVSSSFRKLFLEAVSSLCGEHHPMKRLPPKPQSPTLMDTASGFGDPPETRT
Description: as §1, §2, §3

Row | Structure (SMILES) | IC50 (hNTS1 receptor) [µM] | IC50 (hNTS2 receptor) [µM] | Selectivity (hNTS2 receptor)
1 | CC(C)C[C@H](NC(=O)[C@H](Cc1ccc(O)cc1)NC(=O)C1(C)CC=CCCC[C@H](N)C(=O)N[C@@H](CCCCN)C(=O)N[C@@H](CCCCN)C(=O)N1)C(=O)O (single isomer, unassigned) [compound 92, c[G(All)KKG*(alpha-Me-(4-Pentenyl))]YL] | > 100 | 0.511 | >196
2 | CCC(C)[C@H](NC(=O)[C@H](Cc1ccc(O)cc1)NC(=O)[C@@H]1CC=CC[C@H](N)C(=O)N[C@@H](CCCCN)C(=O)N[C@@H](CCCCN)C(=O)N1)C(=O)O (some centres unmarked) [compound 14, c[G(All)KKG(All)]YI] (H-[AllylGly]KK[AllylGly]Y[Ile(3ξ)]-OH; staple 1-4) | 100 | 10.2 | 10
3 | CC(=O)Oc1ccc(C[C@H](NC(=O)[C@@H]2CC=CC[C@H](N)C(=O)N[C@@H](CCCCN)C(=O)N[C@@H](CCCCN)C(=O)N2)C(=O)N[C@@H](CC(C)C)C(=O)O)cc1 [compound 15, c[G(All)KKG(All)]Y(OAc)L] (H-[AllylGly]KK[AllylGly]Y(Ac)L-OH; staple 1-4) | > 100 | – | –
4 | CC(C)C[C@H](NC(=O)[C@H](Cc1c[nH]c2ccccc12)NC(=O)[C@@H]1CC=CC[C@H](N)C(=O)N[C@@H](CCCCN)C(=O)N[C@@H](CCCCN)C(=O)N1)C(=O)O [compound 16, c[G(All)KKG(All)]WL] (H-[AllylGly]KK[AllylGly]WL-OH; staple 1-4) | > 100 | 0.0536 | 1865
5 | CC(C)C[C@H](NC(=O)[C@H](CCCCN)NC(=O)[C@@H]1CC=CC[C@H](N)C(=O)N[C@@H](CCCCN)C(=O)N[C@@H](CCCCN)C(=O)N1)C(=O)O [compound 17, c[G(All)KKG(All)]KL] (H-[AllylGly]KK[AllylGly]KL-OH; staple 1-4) | > 100 | 1.1 | 90.9
6 | CC(C)C[C@H](NC(=O)[C@@H](Cc1ccc(O)cc1)NC(=O)[C@@H]1CC=CC[C@H](N)C(=O)N[C@@H](CCCCN)C(=O)N[C@@H](CCCCN)C(=O)N1)C(=O)O [compound 21, c[G(All)KKG(All)]Y*L] (H-[AllylGly]KK[AllylGly][dY]L-OH; staple 1-4) | > 100 | 4.7 | –
7 | CC(C)(C)[C@H](NC(=O)[C@H](Cc1ccc(O)cc1)NC(=O)[C@@H]1CC=CC[C@H](N)C(=O)N[C@@H](CCCCN)C(=O)N[C@@H](CCCCN)C(=O)N1)C(=O)O [compound 27, c[G(All)KKG(All)]YTle] (H-[AllylGly]KK[AllylGly]Y[Tle]-OH; staple 1-4) | > 100 | 77.8 | >1.3
8 | CCCC[C@H](NC(=O)[C@H](Cc1ccc(O)cc1)NC(=O)[C@@H]1CC=CC[C@H](N)C(=O)N[C@@H](CCCCN)C(=O)N[C@@H](CCCCN)C(=O)N1)C(=O)O [compound 28, c[G(All)KKG(All)]YNle] (H-[AllylGly]KK[AllylGly]Y[Nle]-OH; staple 1-4) | > 100 | 0.381 | >262
9 | CCC[C@H](NC(=O)[C@H](Cc1ccc(O)cc1)NC(=O)[C@@H]1CC=CC[C@H](N)C(=O)N[C@@H](CCCCN)C(=O)N[C@@H](CCCCN)C(=O)N1)C(=O)O [compound 29, c[G(All)KKG(All)]YNva] (H-[AllylGly]KK[AllylGly]Y[Nva]-OH; staple 1-4) | > 100 | 3.3 | >30.3
10 | NCCCC[C@@H]1NC(=O)[C@H](CCCCN)NC(=O)[C@@H](N)CC=CC[C@@H](C(=O)N[C@@H](Cc2ccc(O)cc2)C(=O)N[C@H](C(=O)O)C2CCCCC2)NC1=O [compound 30, c[G(All)KKG(All)]YChG] (H-[AllylGly]KK[AllylGly]Y[Chg]-OH; staple 1-4) | > 100 | 0.955 | >104
11 | NCCCC[C@@H]1NC(=O)[C@H](CCCCN)NC(=O)[C@@H](N)CC=CC[C@@H](C(=O)N[C@@H](Cc2ccc(O)cc2)C(=O)N[C@@H](CC2CCCCC2)C(=O)O)NC1=O [compound 31, c[G(All)KKG(All)]YA(Ch)] (H-[AllylGly]KK[AllylGly]Y[Cha]-OH; staple 1-4) | > 100 | 0.00867 | >11534
12 | NCCCC[C@@H]1NC(=O)[C@H](CCCCN)NC(=O)[C@@H](N)CC=CC[C@@H](C(=O)N[C@@H](Cc2ccc(O)cc2)C(=O)N[C@@H](Cc2ccccc2)C(=O)O)NC1=O [compound 32, c[G(All)KKG(All)]YF] (H-[AllylGly]KK[AllylGly]YF-OH; staple 1-4) | > 100 | 0.453 | >220
13 | CC(C)[C@H](NC(=O)[C@H](Cc1ccc(O)cc1)NC(=O)[C@@H]1CC=CC[C@H](N)C(=O)N[C@@H](CCCCN)C(=O)N[C@@H](CCCCN)C(=O)N1)C(=O)O [compound 33, c[G(All)KKG(All)]YV] (H-[AllylGly]KK[AllylGly]YV-OH; staple 1-4) | > 100 | 79.8 | >1.25
14 | CC(C)C[C@@H](NC(=O)[C@H](Cc1ccc(O)cc1)NC(=O)[C@@H]1CC=CC[C@H](N)C(=O)N[C@@H](CCCCN)C(=O)N[C@@H](CCCCN)C(=O)N1)C(=O)O [compound 38, c[G(All)KKG(All)]YL*] (H-[AllylGly]KK[AllylGly]Y[dL]-OH; staple 1-4) | > 100 | 240 | > 2.4
15 | CC(C)C[C@H](NC(=O)[C@H](Cc1ccc(O)cc1)NC(=O)[C@H]1CC=CC[C@H](N)C(=O)N[C@@H](CCCCN)C(=O)N[C@@H](CCCCN)C(=O)N1)C(=O)O [compound 40, c[G(All)KKG*(All)]YL] (H-[AllylGly]KK[dAllylGly]YL-OH; staple 1-4) | > 100 | 1.2 | >85
16 | CC(C)C[C@H](NC(=O)[C@H](Cc1ccc(O)cc1)NC(=O)[C@@H]1CC=CC[C@@H](N)C(=O)N[C@@H](CCCCN)C(=O)N[C@@H](CCCCN)C(=O)N1)C(=O)O [compound 41, c[G*(All)KKG(All)]YL] (H-[dAllylGly]KK[AllylGly]YL-OH; staple 1-4) | > 100 | 0.113 | >889
17 | CC(C)C[C@H](NC(=O)[C@H](Cc1ccc(O)cc1)NC(=O)[C@H]1CC=CC[C@@H](N)C(=O)N[C@@H](CCCCN)C(=O)N[C@@H](CCCCN)C(=O)N1)C(=O)O [compound 42, c[G*(All)KKG*(All)]YL] (H-[dAllylGly]KK[dAllylGly]YL-OH; staple 1-4) | > 100 | 2.3 | >42
18 | CC(C)C[C@H](NC(=O)[C@@H](Cc1c[nH]c2ccccc12)NC(=O)[C@@H]1CC=CC[C@H](N)C(=O)N[C@@H](CCCCN)C(=O)N[C@@H](CCCCN)C(=O)N1)C(=O)O [compound 43, c[G(All)KKG(All)]W*L] (H-[AllylGly]KK[AllylGly][dW]L-OH; staple 1-4) | > 100 | 0.968 | >103.3
19 | CC(C)C[C@H](NC(=O)[C@H](Cc1ccc(O)cc1)NC(=O)[C@@H]1CNC(=O)CC[C@H](N)C(=O)N[C@@H](CCCCN)C(=O)N[C@@H](CCCCN)C(=O)N1)C(=O)O [compound 102, c[EKKDap]YL] (H-EKK[Dap]YL-OH; lactam 1-4) | > 100 | – | –
20 | CC(C)C[C@H](NC(=O)[C@H](Cc1ccc(O)cc1)NC(=O)[C@@H]1CCCNC(=O)CC[C@H](N)C(=O)N[C@@H](CCCCN)C(=O)N[C@@H](CCCCN)C(=O)N1)C(=O)O [compound 106, c[EKKOrn]YL] (H-EKK[Orn]YL-OH; lactam 1-4) | > 100 | – | –
21 | CC(C)C[C@H](NC(=O)[C@H](Cc1ccc(O)cc1)NC(=O)[C@@H]1CCCNC(=O)C[C@H](N)C(=O)N[C@@H](CCCCN)C(=O)N[C@@H](CCCCN)C(=O)N1)C(=O)O [compound 107, c[DKKOrn]YL] (H-DKK[Orn]YL-OH; lactam 1-4) | > 100 | – | –
22 | CC(C)C[C@H](NC(=O)[C@H](Cc1ccc(O)cc1)NC(=O)[C@@H]1CCCCNC(=O)CC[C@H](N)C(=O)N[C@@H](CCCCN)C(=O)N[C@@H](CCCCN)C(=O)N1)C(=O)O [compound 108, c[EKKK]YL] (H-EKKKYL-OH; lactam 1-4) | > 100 | – | –
23 | CC(C)C[C@H](NC(=O)[C@H](Cc1ccc(O)cc1)NC(=O)[C@@H]1CCCCNC(=O)C[C@H](N)C(=O)N[C@@H](CCCCN)C(=O)N[C@@H](CCCCN)C(=O)N1)C(=O)O [compound 109, c[DKKK]YL] (H-DKKKYL-OH; lactam 1-4) | > 100 | – | –
